According to ChEMBL document CHEMBL3045025, “Exploring structural requirement and binding interactions of -amyloid cleavage enzyme inhibitors using molecular modeling techniques” (Med Chem Res, 2013):

These compounds were tested against Beta-secretase 1 (Homo sapiens, UniProt P56817) (assay: Inhibition of BACE (unknown origin)).
Beta-secretase 1, sequence (P56817 whole entry): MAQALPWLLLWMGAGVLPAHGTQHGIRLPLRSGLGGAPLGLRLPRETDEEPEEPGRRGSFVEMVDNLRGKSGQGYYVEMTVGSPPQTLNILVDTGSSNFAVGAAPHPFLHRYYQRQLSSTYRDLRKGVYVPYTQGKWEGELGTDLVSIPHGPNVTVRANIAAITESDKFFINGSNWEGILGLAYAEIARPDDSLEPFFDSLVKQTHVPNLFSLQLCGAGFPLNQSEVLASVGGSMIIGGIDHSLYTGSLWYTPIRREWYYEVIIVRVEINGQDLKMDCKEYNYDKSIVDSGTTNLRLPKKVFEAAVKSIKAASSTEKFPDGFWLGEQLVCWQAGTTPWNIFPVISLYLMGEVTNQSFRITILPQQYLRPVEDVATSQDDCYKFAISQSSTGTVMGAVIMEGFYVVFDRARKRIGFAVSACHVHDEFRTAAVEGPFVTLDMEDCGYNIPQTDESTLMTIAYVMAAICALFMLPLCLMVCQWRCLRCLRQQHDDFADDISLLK
CC(C)C[C@H](NCC(=O)[C@H](CS(C)(=O)=O)NC(=O)OC(C)(C)C)[C@@H](O)C[C@@H](C)C(=O)N[C@H](C(=O)NCc1ccccc1)C(C)C was tested, and the Ki was 1.13 µM. CSCC[C@@H](NC(=O)[C@@H](NC(=O)OC(C)(C)C)C(C)C)C(=O)CN[C@@H](CC(C)C)[C@@H](O)C[C@@H](CC(C)C)C(=O)N[C@@H](C(=O)NCc1ccccc1)C(C)C was tested, and the Ki was 10.5 µM. With CSC[C@@H](NC(=O)[C@@H](NC(=O)OC(C)(C)C)C(C)C)C(=O)CN[C@@H](CC(C)C)[C@@H](O)C[C@@H](C)C(=O)N[C@H](C(=O)NCc1ccccc1)C(C)C the Ki was 50.1 µM. CSCC[C@@H](NC(=O)[C@@H](NC(=O)OC(C)(C)C)C(C)C)C(=O)CN[C@@H](CC(C)C)[C@@H](O)C[C@@H](C)C(=O)NC(C(=O)NCc1ccccc1)C(C)C (single isomer, unassigned) was tested, and the Ki was 2.5 µM. CC(C)C[C@H](NCC(=O)[C@@H](CCS(C)(=O)=O)NC(=O)[C@@H](NC(=O)OC(C)(C)C)C(C)C)[C@@H](O)C[C@@H](C)C(=O)N[C@@H](C(=O)NCc1ccccc1)C(C)C gave a Ki of 8 µM. For CC(C)C[C@H](NCC(=O)[C@H](CC(N)=O)NC(=O)OC(C)(C)C)[C@@H](O)C[C@@H](C)C(=O)N[C@H](C(=O)NCc1ccccc1)C(C)C, the Ki was 3.13 µM. Compound CC(C)C[C@H](NCC(=O)[C@H](CC(N)=O)NC(=O)[C@@H](NC(=O)OC(C)(C)C)C(C)C)[C@@H](O)C[C@@H](C)C(=O)N[C@@H](C)C(=O)NCc1ccccc1 has a Ki of 61.4 µM. With CC(C)C[C@H](NCC(=O)[C@H](CC(N)=O)NC(=O)OC(C)(C)C)[C@@H](O)C[C@@H](C)C(=O)N[C@@H](C)C(=O)NCc1ccccc1 the Ki was 22.4 µM. CSCC[C@@H](NC(=O)OC(C)(C)C)C(=O)CN[C@@H](CC(C)C)[C@@H](O)C[C@@H](C)C(=O)N[C@H](C(=O)NCc1ccccc1)C(C)C showed a Ki of 5.81 µM. With CC(C)C[C@H](NCC(=O)[C@H](CS(C)(=O)=O)NC(=O)[C@@H](NC(=O)OC(C)(C)C)C(C)C)[C@@H](O)C[C@@H](C)C(=O)N[C@@H](C(=O)NCc1ccccc1)C(C)C the Ki was 9.4 µM. Work on CC(C)C[C@H](NCC(=O)[C@H](CC(N)=O)NC(=O)[C@@H](NC(=O)OC(C)(C)C)C(C)C)[C@@H](O)C[C@@H](C)C(=O)N[C@@H](C(=O)NCc1ccccc1)C(C)C yielded a Ki of 5.9 µM.
